Assays:
[1] = HLM stability (Low Activity, Alternative Method); type: in vitro ADME; settings: both sexes, human, liver microsomes, pH 7.4, Condition 1 column, values marked *: Low Activity, 0.50 mg protein/mL
Method: (§1) HLM Stability (Low Activity, Alternative Method). Pooled HLM from adult male and female donors (Corning 452117) were used. Microsomal incubations were carried out in multi-well plates. Liver microsomal incubation medium consisted of PBS (100 mM, pH 7.4), MgCl2 (1 mM), and NADPH (1 mM), with 0.50 mg of liver microsomal protein per mL. Control incubations were performed by replacing the NADPH-cofactor system with PBS. Test compounds (1 μM, final solvent concentration 1.0%) were incubated with microsomes at 37° C. with constant shaking. Six time points over 60 minutes were analyzed, with 60 μL aliquots of the reaction mixture being drawn at each time point. The reaction aliquots were stopped by adding 180 μL of cold (4° C.) acetonitrile containing 200 ng/mL tolbutamide and 200 ng/mL labetalol as internal standards (IS), followed by shaking for 10 minutes, and then protein sedimentation by centrifugation at 4000 rpm for 20 minutes at 4° C. Supernatant samples (80 μL) were diluted with water (240 μL) and analyzed for parent compound remaining using a fit-for-purpose liquid chromatography-tandem mass spectrometry (LC-MS/MS) method.
(§2) Data Analysis. The elimination constant (kel), half-life (t1/2) and intrinsic clearance (Clint) were determined in a plot of […] versus time, using linear regression analysis.

[2] = MLM stability (Low Activity); type: in vitro ADME, CD-1 mice; settings: male, CD-1, mouse, liver microsomes, pH 7.4, Condition 1 (Low Activity), 0.50 mg protein/mL
Method: as §1, with “MLM” for “HLM”, “Activity).” for “Activity, Alternative Method).”, “from” for “from adult”, “CD-1 mice (XenoTech M1000)” for “and female donors (Corning 452117)”
as §2

[3] = RLM stability (Low Activity); type: in vitro ADME, Sprague Dawley rats; settings: male, Sprague Dawley, rat, liver microsomes, pH 7.4, Condition 1 (Low Activity), 0.50 mg protein/mL
Method: as §1, with “RLM” for “HLM”, “Activity).” for “Activity, Alternative Method).”, “from” for “from adult”, “Sprague Dawley rats (XenoTech R1000)” for “and female donors (Corning 452117)”
as §2

[4] = target: MK-801 binding site of the N-methyl-D-aspartate receptor (NMDAR); assay: NMDAR radioligand binding with [3H]MK-801, Method B; set-up: species or system Sprague Dawley rat; settings: MK-801 site, Method B, male Sprague Dawley rat cortex, 5.0 nM [3H]MK-801; read-out: NMDAR Ki ± SEM
Method: Radioligand Binding—Method B. Affinity of the test compounds for NMDAR was determined in radioligand binding experiments with [^3H]MK-801 by WuXi AppTec (Hong Kong) Limited, under the conditions described in Table 13.

[5] = target: T1, serotonin transporter (SERT) (Homo sapiens, UniProt P31645); assay: Fluorescent substrate uptake inhibition, SERT; type: cell-based; settings: for inhibition at 10 µM: HEK293 cells expressing SERT
T1 construct: expressed in transfected cells; host or cells: HEK293

[6] = target: T2, norepinephrine transporter (NET) (Homo sapiens, UniProt P23975); assay: Fluorescent substrate uptake inhibition, NET; type: cell-based; settings: 10 μM, HEK293 cells expressing NET
T2 construct: expressed in transfected cells; host or cells: HEK293

[7] = target: T3, dopamine transporter (DAT) (Homo sapiens, UniProt Q01959); assay: Fluorescent substrate uptake inhibition, DAT; type: cell-based; settings: 10 μM, CHO cells expressing DAT
T3 construct: expressed in transfected cells; host or cells: CHO (uptake)

[8] = target: T4, vesicular monoamine transporter 2 (VMAT2) (Homo sapiens, UniProt Q05940); assay: Fluorescent substrate uptake inhibition, VMAT2; type: cell-based; settings: 10 μM, transfected cells
T4 construct: expressed in transfected cells

SERT = target: T5, SERT (Homo sapiens, UniProt P31645); assay: SERT radioligand binding with [3H]imipramine
T5 construct: expressed in transfected cells; host or cells: HEK293
Method: Radioligand Binding. Affinity of the test compounds for SERT, NET, and DAT was determined in radioligand binding experiments with [^3H]imipramine, [^3]nisoxetine, and [^3H]WIN35,428, respectively, by WuXi AppTec (Hong Kong) Limited, under the conditions described in Table 15.

[9] = HLM stability (Low Activity); type: in vitro ADME; settings: both sexes, human, liver microsomes, pH 7.4, Condition 1 (Low Activity), 0.42 mg protein/mL
Method: For some of the compounds, stability was tested under two microsomal incubation conditions, one with normal enzymatic activity (low activity) and one with higher enzymatic loading, longer incubation time, and lower compound concentration (high activity) intended to increase metabolic lability.
(§3) HLM Stability (Low Activity). Pooled HLM from adult male and female donors (XenoTech H0630) were used. Microsomal incubations were carried out in 96-well plates in 5 aliquots of 40 μL, each (one for each time point). Liver microsomal incubation medium consisted of PBS (100 mM, pH 7.4), MgCl2 (3.3 mM), NADPH (3 mM), glucose-6-phosphate (5.3 mM), and glucose-6-phosphate dehydrogenase (0.67 units/mL), with 0.42 mg of liver microsomal protein per mL. Control incubations were performed by replacing the NADPH-cofactor system with PBS. Test compounds (2 μM, final solvent concentration 1.6%) were incubated with microsomes at 37° C., shaking at 100 rpm. Incubations were performed in duplicate. Five time points over 40 minutes were analyzed. The reactions were stopped by adding 12 volumes of 90% acetonitrile-water to incubation aliquots, followed by protein sedimentation by centrifugation at 5500 rpm for 3 minutes. Supernatants were analyzed for parent compound remaining using a fit-for-purpose liquid chromatography-tandem mass spectrometry (LC-MS/MS) method, with authentic samples of each analyte used for identity confirmation.
as §2

[10] = HLM stability (High Activity); type: in vitro ADME; settings: both sexes, human, liver microsomes, pH 7.4, Condition 2 (High Activity), 1.0 mg protein/mL
Method: as §3, with “Stability (High” for “Stability (Low”, “with 1.0” for “with 0.42”, “compounds (1” for “compounds (2”, “over 60” for “over 40”
as §2

[11] = target: MK-801 binding site of the N-methyl-D-aspartate receptor (NMDAR); assay: NMDAR radioligand binding with [3H]MK-801, Method A; set-up: species or system Wistar rat; settings: MK-801 site, Method A, Wistar rat brain (minus cerebellum), 5.0 nM [3H]MK-801; read-out: NMDAR Ki ± SEM
Method: Radioligand Binding—Method A. Affinity of the test compounds for NMDAR was determined in radioligand binding experiments with [^3H]MK-801 by Eurofins Panlabs, Inc., using methods adapted from the literature (Javitt et al. 1987; Reynolds et al. 1989) and under the conditions described in Table 12.

CSDS-susceptible mice = assay: Behavioral tests after chronic social defeat stress (CSDS); type: in vivo, C57BL/6 mice; settings: single dose
[12] = test system: monoamine transporters, MATs (SERT, NET, DAT, VMAT2); assay: Monoamine uptake inhibition, monoamine transporters collectively; type: cell-based; settings: in words
Method: The ability of the compounds of the present invention to inhibit uptake of monoamines by the serotonin transporter (SERT), norepinephrine transporter (NET), dopamine transporter (DAT), and vesicular monoamine transporter 2 (VMAT2) (collectively monoamine transporters, MATs) was measured using fluorescent substrate uptake assays in transfected cells (Table 14). The binding affinities of select compounds were also determined in radioligand displacement assays at SERT, NET, and/or DAT (Table 14).
Uptake Inhibition. The ability of test compounds to block monoamine uptake by SERT, NET, DAT, and VMAT2 was determined using the Neurotransmitter Transporter Uptake Assay Kit manufactured by Molecular Devices (Cat #R8173). Briefly, stably transfected cells expressing the MAT of interest (HEK293 cells for SERT and NET; CHO cells for DAT) were grown and plated into 384-well plates at a concentration of 20,000 cells per well. Plates were then incubated for 16-20 h at 37° C. and 5% CO2. The medium was then aspirated and replaced with 25 μL of assay buffer (20 mM HEPES in HBSS, containing 0.1% BSA) containing the test compounds at the appropriate concentrations. Plates were then centrifuged at 300 rpm for 15 s and then incubated at 37° C. for 30 minutes. At this time, 25 μL of the proprietary fluorescent dye solution was added, the plates were incubated at 37° C. for 60 minutes, and then fluorescence was quantified on a plate reader (excitation wavelength=440 nm, emission wavelength=520 nm). The proprietary dye solution contains a mixture of 1) a fluorescent dye that mimics the endogenous substrates of MATs and is thereby actively transported to the intracellular compartment in the absence of an inhibitor and 2) a masking dye that inhibits the fluorescence of dye 1 in the extracellular compartment. Therefore, the overall fluorescence of the system increases as the fluorescent dye is transported into the cells.

T1 sequence (P31645 whole entry, species assumed): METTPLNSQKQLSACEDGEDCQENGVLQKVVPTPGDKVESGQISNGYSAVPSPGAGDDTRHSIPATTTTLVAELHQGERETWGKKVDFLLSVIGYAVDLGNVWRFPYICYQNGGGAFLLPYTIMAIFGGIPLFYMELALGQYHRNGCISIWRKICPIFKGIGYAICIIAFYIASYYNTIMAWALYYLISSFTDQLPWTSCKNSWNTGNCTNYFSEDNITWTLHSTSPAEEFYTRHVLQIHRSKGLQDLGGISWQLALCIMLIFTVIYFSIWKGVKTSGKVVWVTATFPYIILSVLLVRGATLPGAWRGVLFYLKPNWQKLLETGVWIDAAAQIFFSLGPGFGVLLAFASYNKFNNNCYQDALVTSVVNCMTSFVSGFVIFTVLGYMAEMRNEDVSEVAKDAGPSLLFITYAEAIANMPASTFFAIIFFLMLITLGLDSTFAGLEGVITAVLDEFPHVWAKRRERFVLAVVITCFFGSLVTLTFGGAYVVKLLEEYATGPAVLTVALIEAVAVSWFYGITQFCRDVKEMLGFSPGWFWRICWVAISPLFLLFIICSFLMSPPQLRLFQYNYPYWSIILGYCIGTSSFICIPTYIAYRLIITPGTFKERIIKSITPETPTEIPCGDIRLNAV
T3 sequence (Q01959 whole entry, species assumed): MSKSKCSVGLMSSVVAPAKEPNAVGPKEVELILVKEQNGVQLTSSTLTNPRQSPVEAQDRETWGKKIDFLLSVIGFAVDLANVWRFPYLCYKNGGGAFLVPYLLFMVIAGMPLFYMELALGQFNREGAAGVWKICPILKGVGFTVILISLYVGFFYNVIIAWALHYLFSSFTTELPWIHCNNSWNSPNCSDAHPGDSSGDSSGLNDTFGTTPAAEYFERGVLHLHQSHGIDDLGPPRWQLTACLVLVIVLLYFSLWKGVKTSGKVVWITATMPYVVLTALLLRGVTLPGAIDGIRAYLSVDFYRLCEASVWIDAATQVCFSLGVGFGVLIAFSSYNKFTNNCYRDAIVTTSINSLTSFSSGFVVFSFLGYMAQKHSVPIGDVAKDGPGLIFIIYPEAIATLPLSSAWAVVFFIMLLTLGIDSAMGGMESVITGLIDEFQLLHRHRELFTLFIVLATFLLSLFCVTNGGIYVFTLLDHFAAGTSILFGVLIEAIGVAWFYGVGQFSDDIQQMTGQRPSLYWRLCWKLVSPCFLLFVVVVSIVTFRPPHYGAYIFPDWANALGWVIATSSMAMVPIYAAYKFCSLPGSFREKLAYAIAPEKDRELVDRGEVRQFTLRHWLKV
T4 sequence (Q05940 whole entry, species assumed): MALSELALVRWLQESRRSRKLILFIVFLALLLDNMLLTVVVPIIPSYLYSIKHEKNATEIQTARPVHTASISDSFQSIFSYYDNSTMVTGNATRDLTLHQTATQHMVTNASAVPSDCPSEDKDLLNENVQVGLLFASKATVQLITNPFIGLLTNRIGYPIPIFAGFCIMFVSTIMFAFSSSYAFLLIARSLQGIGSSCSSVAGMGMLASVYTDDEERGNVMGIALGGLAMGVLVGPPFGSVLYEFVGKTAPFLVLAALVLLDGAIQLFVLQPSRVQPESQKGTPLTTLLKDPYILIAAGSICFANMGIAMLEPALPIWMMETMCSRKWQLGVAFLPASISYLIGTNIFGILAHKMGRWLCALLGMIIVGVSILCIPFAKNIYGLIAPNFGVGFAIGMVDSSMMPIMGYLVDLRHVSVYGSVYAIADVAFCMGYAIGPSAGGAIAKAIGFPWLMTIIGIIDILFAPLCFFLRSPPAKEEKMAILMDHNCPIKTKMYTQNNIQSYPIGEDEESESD
T2 sequence (P23975 whole entry, species assumed): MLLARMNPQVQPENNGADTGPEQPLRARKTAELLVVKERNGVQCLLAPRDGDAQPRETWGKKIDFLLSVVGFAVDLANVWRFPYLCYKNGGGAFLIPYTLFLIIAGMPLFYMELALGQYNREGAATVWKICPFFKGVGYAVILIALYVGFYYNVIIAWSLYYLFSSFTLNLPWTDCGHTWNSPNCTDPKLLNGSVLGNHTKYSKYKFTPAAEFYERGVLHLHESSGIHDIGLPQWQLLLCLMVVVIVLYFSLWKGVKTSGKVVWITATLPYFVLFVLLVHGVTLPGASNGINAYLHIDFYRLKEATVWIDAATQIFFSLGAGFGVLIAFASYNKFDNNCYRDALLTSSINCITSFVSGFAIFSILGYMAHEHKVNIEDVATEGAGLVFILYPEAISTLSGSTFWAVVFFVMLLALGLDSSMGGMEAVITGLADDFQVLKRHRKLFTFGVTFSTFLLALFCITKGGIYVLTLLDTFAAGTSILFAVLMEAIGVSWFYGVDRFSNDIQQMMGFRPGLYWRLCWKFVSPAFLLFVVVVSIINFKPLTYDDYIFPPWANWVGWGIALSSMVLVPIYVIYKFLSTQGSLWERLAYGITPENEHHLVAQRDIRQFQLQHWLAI
T5 sequence (P31645 whole entry, species assumed): as the sequence (P31645 whole entry, species assumed) above

**Q.** Which results are given for `CC(C)N[C@@]1(c2ccccc2)CCCCC1=O` [Compound 28R, (R)-2-(isopropylamino)-2-phenylcyclohexan-1-one]?
**A.** half-life at 1 μM [1]: 1.16 h; microsomal CLint at 1 μM [1]: 20 µL/min/mg; half-life at 1 μM [2]: 0.188 h; microsomal CLint at 1 μM [2]: 123 µL/min/mg; half-life at 1 μM [3]: 0.438 h; microsomal CLint at 1 μM [3]: 52.6 µL/min/mg; Ki [4]: > 23 µM; IC50 [5]: 7.3 µM; inhibition at 10 µM [5]: 37.2%; inhibition at 10 µM [6]: 11.4%; inhibition at 10 µM [7]: 16.5%; inhibition at 10 µM [8]: -11.4%; Ki (SERT): 8.6 µM

**Q.** What does the source list for `NC1(c2ccccc2Cl)CCCCC1=O` (racemic) [Compound 78rac]?
**A.** half-life at 2 μM [9]: 4.28 h; microsomal CLint at 2 μM [9]: 7 µL/min/mg; half-life at 1 μM [10]: 3.03 h; microsomal CLint at 1 μM [10]: 4 µL/min/mg; Ki [11]: 4 µM

**Q.** Which results are given for `CNC1(c2ccccc2I)CCCCC1=O` (racemic) [Compound 37rac, 2-(2-Iodophenyl)-2-(methylamino)cyclohexan-1-one]?
**A.** antidepressant-like activity in behavioral tests after CSDS (TST, FST, SPT) (CSDS-susceptible mice; 10 mg/kg i.p.): not effective; antidepressant-like activity in behavioral tests after CSDS (TST, FST, SPT) (CSDS-susceptible mice; 30 mg/kg i.p.): only partially effective

**Q.** For `CNC1(c2cccc(OC)c2)CCCCC1=O` (racemic) [Compound 3rac], which half-life at 2 μM [9] is on record?
**A.** Its half-life at 2 μM is 1.46 h.

**Q.** What about the microsomal CLint at 2 μM [9] of the same molecule?
**A.** Its microsomal CLint at 2 μM is 19 µL/min/mg.

**Q.** What about the half-life at 1 μM [10] of the same molecule?
**A.** The half-life at 1 μM was 2.5 h.

**Q.** What about the microsomal CLint at 1 μM [10] of the same molecule?
**A.** The microsomal CLint at 1 μM was 5 µL/min/mg.

**Q.** And the Ki [11]?
**A.** The Ki was 0.99 µM.

**Q.** With `CNC1(c2ccc(F)cc2)CCCCC1=O` (racemic) [Compound 18rac, 2-(4-fluorophenyl)-2-(methylamino)cyclohexan-1-one] as the molecule, how does the half-life at 1 μM [1] read?
**A.** The half-life at 1 μM was greater than 2.42 h.

**Q.** What about the microsomal CLint at 1 μM [1] of the same molecule?
**A.** The microsomal CLint at 1 μM was less than 9.6 µL/min/mg.

**Q.** What about the microsomal CLint at 1 μM [2] of the same molecule?
**A.** Its microsomal CLint at 1 μM is 13.7 µL/min/mg.

**Q.** What about the microsomal CLint at 1 μM [3] of the same molecule?
**A.** Its microsomal CLint at 1 μM is 19.6 µL/min/mg.

**Q.** And the Ki [4]?
**A.** The Ki was 4.5 µM.

**Q.** And the inhibition at 10 µM [5]?
**A.** Its inhibition at 10 µM is 25.2%.

**Q.** And the inhibition at 10 µM [6]?
**A.** Its inhibition at 10 µM is 16%.

**Q.** And the inhibition at 10 µM [7]?
**A.** The inhibition at 10 µM was 21.4%.

**Q.** What about the inhibition at 10 µM [8] of the same molecule?
**A.** The inhibition at 10 µM was 20.2%.

**Q.** And the “selectivity for NMDAR (over MATs)” value [12]?
**A.** The value was “greater selectivity for NMDAR”.

**Q.** For `CCNC1(c2ccccc2)CCCCC1=O` (racemic) [Compound 1rac], which half-life at 2 μM [9] is on record?
**A.** Its half-life at 2 μM is 2.22 h.

**Q.** What about the microsomal CLint at 2 μM [9] of the same molecule?
**A.** The microsomal CLint at 2 μM was 13 µL/min/mg.

**Q.** And the half-life at 1 μM [10]?
**A.** Its half-life at 1 μM is 4.98 h.

**Q.** And the microsomal CLint at 1 μM [10]?
**A.** Its microsomal CLint at 1 μM is 2 µL/min/mg.

**Q.** And the Ki [11]?
**A.** The Ki was 0.3 µM.

**Q.** With `CNC1(c2ccccc2Cl)CCCCC1=O` (racemic) [racemic ketamine, reference compound] as the molecule, how does the “antidepressant-like activity in behavioral tests after CSDS (TST, FST, SPT)” value (CSDS-susceptible mice; 10 mg/kg i.p.) read?
**A.** Its value is “effective”.

**Q.** Which half-life at 2 μM [9] does the source give for `NC1(c2ccccc2)CCCCC1=O` (racemic) [Compound 11rac, 2-amino-2-phenyl-cyclohexan-1-one] here?
**A.** Its half-life at 2 μM is 13.4 h.

**Q.** And the microsomal CLint at 2 μM [9]?
**A.** The microsomal CLint at 2 μM was 2 µL/min/mg.

**Q.** And the half-life at 1 μM [10]?
**A.** Its half-life at 1 μM is 8.9 h.

**Q.** And the microsomal CLint at 1 μM [10]?
**A.** The microsomal CLint at 1 μM was 1 µL/min/mg.

**Q.** And the Ki [11]?
**A.** Its Ki is 1.4 µM.

Reference: patent publication US11344510B2, “Arylcyclohexylamine derivatives and their use in the treatment of psychiatric disorders” (Gilgamesh Pharmaceuticals, Inc., priority 2019, dated 2022)
